# Measurements: PubChem BioAssay (NCI)
# “And” between values parts separate entries of the source, which are not always exact repeats. Identical values can stand only once.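 Growth conditions: 96-well plates. Treatment: test compound, 48 hours, 5 concentrations. Analysis: linear interpolation between bracketing concentrations; unreached endpoints set to highest concentration. GI50 marks 50% less growth. TGI: total growth inhibition.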
# Columns and labels:
# Test in all cases: NCI anticancer screen, dose series, 48 h
# NCI-H23 lung = test system: NCI-H23 lung
# BT-549 breast = test system: BT-549 breast
# SK-OV-3 ovarian = test system: SK-OV-3 ovarian
# UO-31 renal = test system: UO-31 renal
# SR leukemia = test system: SR leukemia
# SK-MEL-2 melanoma = test system: SK-MEL-2 melanoma
# MDA-MB-231 breast = test system: MDA-MB-231 breast
# RPMI-8226 leukemia = test system: RPMI-8226 leukemia
# NCI-H226 lung = test system: NCI-H226 lung
# A498 renal = test system: A498 renal
smiles,measurement,setting,value
COc1ccc2c(c1)C(=O)CC(C(N)=O)C2 (stereo not drawn),TGI,NCI-H23 lung,> 100 µM
same,TGI,BT-549 breast,> 100 µM
same,TGI,SK-OV-3 ovarian,> 100 µM
same,TGI,UO-31 renal,> 100 µM
same,TGI,SR leukemia,> 100 µM
same,TGI,SK-MEL-2 melanoma,> 100 µM
same,TGI,MDA-MB-231 breast,> 100 µM
same,TGI,RPMI-8226 leukemia,> 100 µM
same,TGI,NCI-H226 lung,> 100 µM
Cc1ccccc1N=C(c1ccccc1)C1C(=O)c2ccccc2C1=O,GI50,A498 renal,24400 nM
same,TGI,A498 renal,> 100 µM
same,GI50,NCI-H23 lung,15800 nM
same,TGI,NCI-H23 lung,> 100 µM
same,GI50,SK-OV-3 ovarian,3680 nM
same,TGI,SK-OV-3 ovarian,77.2 µM
same,GI50,UO-31 renal,4.14 µM
same,TGI,UO-31 renal,47.4 µM
same,GI50,SK-MEL-2 melanoma,3320 nM
same,TGI,SK-MEL-2 melanoma,59.8 µM
same,GI50,MDA-MB-231 breast,21300 nM
same,TGI,MDA-MB-231 breast,> 100 µM
same,GI50,RPMI-8226 leukemia,4270 nM
same,TGI,RPMI-8226 leukemia,27 µM
same,GI50,NCI-H226 lung,19400 nM
same,TGI,NCI-H226 lung,57.5 µM
O=[N+]([O-])c1ccc(NC(c2ccccc2)c2ccc3cccnc3c2O)cc1 (stereo not drawn),GI50,A498 renal,634 nM
same,TGI,A498 renal,8.13 µM
same,GI50,NCI-H23 lung,414 nM
same,TGI,NCI-H23 lung,> 100 µM
same,GI50,BT-549 breast,0.601 µM
same,TGI,BT-549 breast,43.2 µM
same,GI50,SK-OV-3 ovarian,500 nM
same,TGI,SK-OV-3 ovarian,> 100 µM
same,GI50,UO-31 renal,0.297 µM
same,TGI,UO-31 renal,> 31.4 µM
same,GI50,SK-MEL-2 melanoma,943 nM
same,TGI,SK-MEL-2 melanoma,> 100 µM
same,GI50,MDA-MB-231 breast,696 nM
same,TGI,MDA-MB-231 breast,> 100 µM
same,GI50,RPMI-8226 leukemia,313 nM
same,TGI,RPMI-8226 leukemia,> 100 µM
same,GI50,NCI-H226 lung,505 nM
same,TGI,NCI-H226 lung,9.19 µM
OCC1OC(NO)C(O)C(O)C1O (stereo not drawn),TGI,A498 renal,> 100 µM
same,TGI,NCI-H23 lung,> 100 µM
same,TGI,SR leukemia,> 100 µM
same,TGI,RPMI-8226 leukemia,> 100 µM
same,TGI,NCI-H226 lung,> 100 µM
COC1C[C@H](O[C@@H]2C[C@H](O[C@@H]3C[C@H](O[C@@H]4C(=O)c5c(cc6cc(O[C@H]7C[C@@H](O[C@H]8C[C@@H](O)[C@H](O)C(C)O8)[C@H](O)C(C)O7)c(C)c(O)c6c5O)C[C@H]4C(OC)C(=O)[C@@H](O)[C@@H](C)O)OC(C)[C@H]3O)OC(C)[C@@H]2O)OC(C)[C@@H]1O (stereo partly drawn),GI50,A498 renal,39.5 nM
same,TGI,A498 renal,0.108 µM
same,GI50,NCI-H23 lung,89.9 nM
same,TGI,NCI-H23 lung,0.695 µM
same,GI50,BT-549 breast,0.0785 µM
same,TGI,BT-549 breast,0.565 µM
same,GI50,SK-OV-3 ovarian,105 nM
same,TGI,SK-OV-3 ovarian,> 32.5 µM
same,GI50,UO-31 renal,0.294 µM
same,TGI,UO-31 renal,4.76 µM
same,GI50,SR leukemia,0.0406 µM
same,TGI,SR leukemia,> 32.5 µM
same,GI50,SK-MEL-2 melanoma,68 nM
same,TGI,SK-MEL-2 melanoma,0.165 µM
COc1ccc(C2[C@@H](Cl)C(=O)N2c2ccc(OC)cc2)cc1 (stereo partly drawn),TGI,A498 renal,> 100 µM
same,TGI,NCI-H23 lung,> 100 µM
same,TGI,SK-OV-3 ovarian,53 µM
same,TGI,UO-31 renal,> 100 µM
same,TGI,SR leukemia,> 100 µM
same,TGI,SK-MEL-2 melanoma,> 100 µM
same,TGI,RPMI-8226 leukemia,> 100 µM
same,TGI,NCI-H226 lung,> 100 µM
CCCCCCCN(CCCCCCC)C(=N)c1ccc(OC)c2ccccc12,GI50,A498 renal,419 nM
same,TGI,A498 renal,1.8 µM
same,GI50,NCI-H23 lung,1100 nM
same,TGI,NCI-H23 lung,2.53 µM
same,GI50,SK-OV-3 ovarian,1660 nM
same,TGI,SK-OV-3 ovarian,3.14 µM
same,GI50,UO-31 renal,0.971 µM
same,TGI,UO-31 renal,2.36 µM
same,GI50,SK-MEL-2 melanoma,1810 nM
same,TGI,SK-MEL-2 melanoma,3.4 µM
O=S1(=O)CC#CC[C@@H](CO)[C@@H](CO)CC#CC1,TGI,NCI-H23 lung,> 100 µM
same,TGI,SK-OV-3 ovarian,> 100 µM
same,TGI,UO-31 renal,> 100 µM
same,TGI,SR leukemia,> 100 µM
same,TGI,SK-MEL-2 melanoma,> 100 µM
CN(N=O)N1C(=O)SCC(c2ccccc2)(c2ccccc2)C1=O,TGI,A498 renal,> 100 µM
same,TGI,NCI-H23 lung,> 100 µM
same,TGI,SK-OV-3 ovarian,64.6 µM
same,TGI,UO-31 renal,> 100 µM
same,TGI,SR leukemia,> 100 µM
same,TGI,SK-MEL-2 melanoma,54.5 µM
same,TGI,MDA-MB-231 breast,> 100 µM
same,TGI,RPMI-8226 leukemia,67.6 µM
same,TGI,NCI-H226 lung,52.7 µM
c1ccc2cc(Cn3c(-c4cccc5ccccc45)[n+](Cc4ccc5ccccc5c4)c4c5ccccc5c5ccccc5c43)ccc2c1,GI50,A498 renal,193 nM
same,TGI,A498 renal,0.779 µM
same,GI50,NCI-H23 lung,248 nM
same,TGI,NCI-H23 lung,1.15 µM
same,GI50,SK-OV-3 ovarian,322 nM
same,TGI,SK-OV-3 ovarian,1.62 µM
same,GI50,RPMI-8226 leukemia,101 nM
same,TGI,RPMI-8226 leukemia,0.861 µM
CC1=NN(c2ccccc2)C(=O)C1N=Nc1ccc(Br)cc1C (stereo not drawn),TGI,A498 renal,> 100 µM
same,TGI,NCI-H23 lung,> 100 µM
same,TGI,SK-OV-3 ovarian,> 100 µM
same,TGI,SK-MEL-2 melanoma,> 100 µM
same,TGI,RPMI-8226 leukemia,> 100 µM
same,TGI,NCI-H226 lung,> 100 µM
C=C1[C@H](O)C[C@@H](C(C)C(O)CC=C(C)C)[C@@H](O)[C@@H]2C(C)=CC[C@@H]12 (stereo partly drawn),GI50,NCI-H23 lung,> 100000 nM
same,TGI,NCI-H23 lung,> 100 µM
same,GI50,BT-549 breast,> 100 µM
same,TGI,BT-549 breast,> 100 µM
same,GI50,SK-OV-3 ovarian,> 100000 nM
same,TGI,SK-OV-3 ovarian,> 100 µM
same,GI50,UO-31 renal,> 100 µM
same,TGI,UO-31 renal,> 100 µM
same,GI50,SR leukemia,> 100 µM
same,TGI,SR leukemia,> 100 µM
same,GI50,SK-MEL-2 melanoma,> 100000 nM
same,TGI,SK-MEL-2 melanoma,> 100 µM
same,GI50,MDA-MB-231 breast,> 100000 nM
same,TGI,MDA-MB-231 breast,> 100 µM
same,GI50,RPMI-8226 leukemia,> 100000 nM
same,TGI,RPMI-8226 leukemia,> 100 µM
same,GI50,NCI-H226 lung,> 100000 nM
same,TGI,NCI-H226 lung,> 100 µM
CC(C)(C)c1cc([Si](C)(C)C)c(C#N)c([Si](C)(C)C)c1,TGI,A498 renal,> 100 µM
same,TGI,NCI-H23 lung,> 100 µM
same,TGI,SK-OV-3 ovarian,> 100 µM
same,TGI,UO-31 renal,> 100 µM
same,TGI,SR leukemia,85.5 µM
same,TGI,SK-MEL-2 melanoma,> 100 µM
same,TGI,NCI-H226 lung,> 100 µM
O=c1[nH]c(C2CCCCC2)nc2ccc(Cl)cc12,TGI,NCI-H23 lung,> 100 µM
same,TGI,SK-OV-3 ovarian,> 100 µM
same,TGI,UO-31 renal,> 100 µM
same,TGI,SR leukemia,> 100 µM
same,TGI,SK-MEL-2 melanoma,> 100 µM
same,TGI,RPMI-8226 leukemia,> 100 µM
same,TGI,NCI-H226 lung,> 100 µM
CCn1c(C)nc([N+](=O)[O-])c1Sc1ncc[nH]1,TGI,A498 renal,> 100 µM
same,TGI,NCI-H23 lung,99.6 µM
same,TGI,SK-OV-3 ovarian,> 100 µM
same,TGI,UO-31 renal,> 100 µM
same,TGI,SR leukemia,> 100 µM
same,TGI,SK-MEL-2 melanoma,> 100 µM
same,TGI,RPMI-8226 leukemia,> 100 µM
same,TGI,NCI-H226 lung,> 100 µM
Cc1ccccc1C1SCc2nc3ccccc3n21 (stereo not drawn),TGI,NCI-H23 lung,> 100 µM
same,TGI,SK-OV-3 ovarian,> 100 µM
same,TGI,UO-31 renal,> 100 µM
same,TGI,SK-MEL-2 melanoma,> 100 µM
same,TGI,RPMI-8226 leukemia,> 100 µM
same,TGI,NCI-H226 lung,> 100 µM
C#Cc1cccc(NC(=O)C2CCCCN2C(=O)CCl)c1 (stereo not drawn),GI50,NCI-H23 lung,10700 nM
same,TGI,NCI-H23 lung,28.2 µM
same,GI50,BT-549 breast,12.5 µM
same,TGI,BT-549 breast,27.2 µM
same,GI50,SK-OV-3 ovarian,> 82500 nM
same,TGI,SK-OV-3 ovarian,> 82.5 µM
same,GI50,UO-31 renal,13.6 µM
same,TGI,UO-31 renal,25.7 µM
same,GI50,SR leukemia,3.6 µM
same,TGI,SR leukemia,66.8 µM
same,GI50,SK-MEL-2 melanoma,23900 nM
same,TGI,SK-MEL-2 melanoma,> 82.5 µM
same,GI50,MDA-MB-231 breast,13100 nM
same,TGI,MDA-MB-231 breast,28.7 µM
same,GI50,RPMI-8226 leukemia,18000 nM
same,TGI,RPMI-8226 leukemia,51.5 µM
same,GI50,NCI-H226 lung,52100 nM
same,TGI,NCI-H226 lung,> 82.5 µM
CC1O[C@@H]2CCCCC(=O)[C@]2(C)[C@H]1C (stereo partly drawn),TGI,SK-OV-3 ovarian,> 100 µM
same,TGI,UO-31 renal,> 100 µM
same,TGI,SK-MEL-2 melanoma,> 100 µM
same,TGI,RPMI-8226 leukemia,> 100 µM
same,TGI,NCI-H226 lung,> 100 µM
O=C(NNC(=O)/C(=C/c1cccc([N+](=O)[O-])c1)NC(=O)c1ccccc1)Nc1ccc(Cl)cc1,TGI,A498 renal,23.4 µM
same,TGI,NCI-H23 lung,30.3 µM
same,TGI,SK-OV-3 ovarian,32.1 µM
same,TGI,UO-31 renal,27.3 µM
same,TGI,SR leukemia,28.1 µM
same,TGI,SK-MEL-2 melanoma,25.5 µM
same,TGI,RPMI-8226 leukemia,38.9 µM
same,TGI,NCI-H226 lung,32.2 µM
CNC(=O)c1cc(Oc2ccc(NC(=O)Nc3ccc(Cl)c(C(F)(F)F)c3)cc2)ccn1,GI50,A498 renal,3100 nM and 2270 nM and 2150 nM
same,TGI,A498 renal,9.48 µM and 6.38 µM and 6.52 µM
same,GI50,NCI-H23 lung,2190 nM and 1650 nM and 1950 nM
same,TGI,NCI-H23 lung,9.84 µM and 5.55 µM and 8.21 µM
same,GI50,BT-549 breast,3.01 µM and 2.29 µM and 3.16 µM
same,TGI,BT-549 breast,> 10 µM and 5.23 µM and 8.69 µM
same,GI50,SK-OV-3 ovarian,3140 nM and 3280 nM and 2500 nM
same,TGI,SK-OV-3 ovarian,9.87 µM and 12.5 µM and 7.31 µM
same,GI50,UO-31 renal,3.08 µM and 3.03 µM and 2.57 µM
same,TGI,UO-31 renal,> 10 µM and 8.18 µM and 6.2 µM
same,GI50,SK-MEL-2 melanoma,1160 nM and 1310 nM and 1770 nM
same,TGI,SK-MEL-2 melanoma,3.57 µM and 2.93 µM and 6.22 µM
same,GI50,MDA-MB-231 breast,1740 nM and 1620 nM and 1330 nM
same,TGI,MDA-MB-231 breast,4.4 µM and 4.42 µM and 4.14 µM
same,GI50,RPMI-8226 leukemia,1500 nM and 2370 nM and 1740 nM
same,TGI,RPMI-8226 leukemia,6.25 µM and 6.93 µM and 6.04 µM
same,GI50,NCI-H226 lung,1140 nM and 2290 nM and 2000 nM
same,TGI,NCI-H226 lung,9.38 µM and 7.14 µM and 7.27 µM
O/N=C1/C(=C/c2ccc(Br)cc2)CCCC1C(NO)c1ccc(Br)cc1 (stereo not drawn),TGI,A498 renal,23 µM
same,TGI,SK-OV-3 ovarian,44.8 µM
same,TGI,UO-31 renal,31.3 µM
same,TGI,SK-MEL-2 melanoma,34 µM
same,TGI,RPMI-8226 leukemia,48.4 µM
